Measured values as given in ChEMBL document CHEMBL5537156, “Discovery and Optimization of WDR5 Inhibitors via Cascade Deoxyribonucleic Acid-Encoded Library Selection Approach” (J Med Chem, 2024).
pIC50: −log10 of the molar value.

Key:
[1] = target: Histone-lysine N-methyltransferase 2A/WDR5 (Homo sapiens, UniProt P61964); experiment: Inhibition of MLL1/WDR5 (unknown origin) protein-protein interaction incubated for 60 mins by HTRF analysis; type: protein assay
K562 = experiment: Antiproliferative activity against human K562 cells assessed as cell growth inhibition incubated for 5 days by CCK-8 assay; type: functional, cell-based
MV4-11 = experiment: Antiproliferative activity against human MV4-11 cells harboring MLL-r assessed as cell growth inhibition incubated for 5 days by CCK-8 assay; type: functional, cell-based

Compound	pIC50 [1]	pIC50 (K562; Homo sapiens, K562, 120 h)	pIC50 (MV4-11; Homo sapiens, MV4-11, 120 h)	pIC50 (K562; k562)	pIC50 (MV4-11; mv4-11)
Cc1ccc(CO)cc1-c1cc(NCc2nc[nH]c2C)cc2c1CCN(Cc1ccc(Cl)cc1)C2=O	7.81	5.15	5.24	–	–
COC(=O)[C@@H](Cc1ccc(Cl)cc1)NC(=O)c1cc(NCc2nc[nH]c2C)cc(-c2ccccc2SC)c1	–	5.52	5.41	–	–
Cc1[nH]cnc1CNc1cc(C(=O)N[C@H](Cc2ccc([N+](=O)[O-])cc2)C(=O)O)ccc1F	6.62	–	–	–	–
COC(=O)[C@@H](Cc1ccc(Cl)cc1)NC(=O)c1cc(NCc2nc[nH]c2C)cc(-c2cc(CO)ccc2C)c1	–	5.31	5.26	–	–
COc1cc(CN2CCc3c(cc(Cn4ccn(C)c4=N)cc3-c3ccc(F)cc3C)C2=O)cc(OC)c1	8.17	5.44	6.77	–	–
Cc1[nH]cnc1CNc1cc(Br)cc(C(=O)N[C@H](Cc2ccc(Cl)cc2)C(=O)O)c1	7.30	–	–	–	–
CNC(=O)[C@@H](Cc1ccc(Cl)cc1)NC(=O)c1cc(NCc2nc[nH]c2C)cc(-c2ccccc2SC)c1	7.95	5.96	5.72	–	–
Cc1[nH]cnc1CNc1cc(Br)cc(C(=O)N[C@H](Cc2ccc(Cl)cc2)C(=O)NC2CC2)c1	7.49	–	–	–	–
Cc1ccc(CO)cc1-c1cc(NCc2nc[nH]c2C)cc2c1CCN(CCc1ccc(Cl)cc1)C2=O	7.76	5.47	5.21	–	–
CNC(=O)[C@@H](Cc1ccc(Cl)cc1)NC(=O)c1cc(NCc2nc[nH]c2C)cc(-c2ccc(Cl)cc2C(F)(F)F)c1	8.01	5.46	5.21	5.31	5.38

The remaining lines, values ahead:

pIC50 [1]	pIC50 (K562; Homo sapiens, K562, 120 h)	pIC50 (MV4-11; Homo sapiens, MV4-11, 120 h)	pIC50 (K562; k562)	pIC50 (MV4-11; mv4-11)	Compound
8.07	4.91	5.30	–	–	CNC(=O)[C@@H](Cc1ccc(Cl)cc1)NC(=O)c1cc(NCc2nc[nH]c2C)cc(-c2cc(CO)ccc2C)c1
7.60	–	–	–	–	CNC(=O)[C@@H](Cc1ccc(Cl)cc1)NC(=O)c1cc(Br)cc(NCc2nc[nH]c2C)c1
7.57	5.46	5.64	–	–	CSc1cc(F)ccc1-c1cc(NCc2nc[nH]c2C)cc2c1CCN(Cc1ccc(Cl)cc1)C2=O
7.38	5.33	5.32	–	–	CSc1ccccc1-c1cc(NCc2nc[nH]c2C)cc2c1CCN(CCc1ccc(Cl)cc1)C2=O
6.66	–	–	–	–	Cc1[nH]cnc1CNc1cc(Br)cc(C(=O)NCCc2ccc(Cl)cc2)c1
6.50	5.52	5.41	–	–	CSc1ccccc1-c1cc(NCc2nc[nH]c2C)cc2c1CCCN(CCc1ccc(Cl)cc1)C2=O
7.40	5.40	5.46	–	–	CSc1cc(F)ccc1-c1cc(NCc2nc[nH]c2C)cc2c1CCN(CCc1ccc(Cl)cc1)C2=O
7.12	5.28	5.32	–	–	Cc1[nH]cnc1CNc1cc2c(c(-c3ccc(Cl)cc3C(F)(F)F)c1)CCN(CCc1ccc(Cl)cc1)C2=O
7.73	–	–	–	–	CNC(=O)[C@@H](Cc1ccc(Cl)cc1)NC(=O)c1cc(NCc2nc[nH]c2C)cc(-c2ccccc2C2CC2)c1
7.39	5.31	5.47	–	–	CSc1ccccc1-c1cc(NCc2nc[nH]c2C)cc2c1CCN(Cc1ccc(Cl)cc1)C2=O
6.83	–	–	–	–	CNC(=O)[C@@H](Cc1ccc(Cl)cc1)NC(=O)c1cc(NCc2nc[nH]c2C)cc(-c2ccc(C(C)(F)F)cc2)c1
7.07	–	–	–	–	Cc1[nH]cnc1CNc1cc(C(=O)N[C@H](Cc2ccc(Cl)cc2)C(=O)O)ccc1F
